Like-named read-outs stand apart in the source and are kept apart here.
Legend:
[1] = tested on: E. granulosus protoscoleces (PSCs); test: microbe, parasite or virus in culture; type: cell-based, Echinococcus granulosus; conditions: for effect on PSCs (protoscolex viability): all three concentrations tested
Description: Cysts of E. granulosus were obtained from a slaughterhouse in Qinghai Province, China. The PSCs were separated in sterile conditions and washed three times in phosphate-buffered saline (PBS). Rinsed PSCs were diluted to a concentration of 1,500 mL^−1 and maintained as previously described, [47]. Briefly, PSCs were cultured in RPMI 1640 medium (Hyclone) with 10% fetal bovine serum (Hyclone), 10% hydatid fluid, 100 U.mL^−1 penicillin G and 100 μg.mL^−1 streptomycin (Sigma, USA). Adult worms were collected from the small intestine of a 2-month-old dog 35 days post-infection with 20,000 PSCs. A 5-month-old dog and two 9-week-old female New Zealand white rabbits were obtained from the Laboratory Animal Center of Sichuan Agricultural University. All animals were provided with food pellets and sterilised water ad libitum.
[…]. PSCs incubated with only assay buffer (DHFR assay kit; Sigma) or DMSO were used as negative controls. The vitality of protoscoleces was assessed using a Trypan Blue exclusion test[50], [51]. The daily percentages of PSCs vitality were calculated on six microscopic fields covering approximately 10–20 PSCs. The effect of per drug concentration was monitored in triplicate and in two separate trials.

rEg-DHFR [2] = target: T1, rEg-DHFR (Echinococcus granulosus, UniProt U6JJS2); test: Inhibition of rEg-DHFR enzyme activity by antifolates (DHFR assay kit, absorbance 340 nm); type: biochemical
T1 sequence (U6JJS2 1-191): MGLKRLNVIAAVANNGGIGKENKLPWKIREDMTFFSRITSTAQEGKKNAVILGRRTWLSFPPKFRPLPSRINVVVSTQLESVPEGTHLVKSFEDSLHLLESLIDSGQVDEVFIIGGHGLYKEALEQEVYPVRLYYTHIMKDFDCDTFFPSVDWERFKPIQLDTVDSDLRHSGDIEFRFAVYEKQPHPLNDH
Description: The temperature was controlled at 22 °C.
The IC50 was calculated using GraphPad Prism software by nonlinear curve-fitting.

rEg-DHFR [3] = target: T1, rEg-DHFR; test: Enzyme kinetics of rEg-DHFR towards substrate DHF (Michaelis-Menten fit); type: biochemical; conditions: 0-120 μM DHF, 60 μM NADPH, 22 °C
Description: The enzymatic characteristics of rEg-DHFR and human DHFR enzyme (DHFR assay kit; Sigma) were analysed using a DHFR assay kit (Sigma) following the manufacturer’s instructions[41]. Briefly, a range of purified rEg-DHFR concentrations was added to the assay buffer and mixed well and the optimal concentration was determined. Reaction progress was measured based on the decrease in absorbance at 340 nm. Data was recorded at 25 s intervals for 2.5 min. The temperature was controlled at 22 °C. […] Kinetic parameters (Vmax and Km) were calculated using GraphPad Prism® software (San Diego, CA, USA; http://www.graphpad.com) based on a Michaelis-Menten curve fit.

[4] = tested on: E. granulosus protoscoleces (PSCs); set-up: method as in PMID 11133110; conditions: positive control; ref [30]; cited from earlier work
[5] = substrate: Nc1nc2c(c(=O)[nH]1)N=C(CNc1ccc(C(=O)N[C@@H](CCC(=O)O)C(=O)O)cc1)CN2; test: purified protein, by the assay type; conditions: other: 0-120 μM DHF, 60 μM NADPH, 22 °C
[6] = 50 μM dihydrofolic acid, 60 μM NADPH, mean ± SD, read-out: IC50 for rEg-DHFR

With `Nc1nc(N)c2nc(CNc3ccc(C(=O)N[C@@H](CCC(=O)O)C(=O)O)cc3)cnc2n1` [Aminopterin, aminopterin] the “effect on PSCs (protoscolex viability)” value ([1]; after 7 days of incubation) was “slight effect” and the IC50 (rEg-DHFR [2]) was 63.7 ± 6.76 nM.

In the case of `Nc1nc2c(c(=O)[nH]1)N=C(CNc1ccc(C(=O)N[C@@H](CCC(=O)O)C(=O)O)cc1)CN2` [DHF, 7,8-dihydrofolate], the “Vmax of rEg-DHFR for substrate DHF” value (rEg-DHFR [3]) is reported as 2.384 ± 0.01874 µmol/min/mg.

For `CN(Cc1cnc2nc(N)nc(N)c2n1)c1ccc(C(=O)N[C@@H](CCC(=O)O)C(=O)O)cc1` [Methotrexate, methotrexate], the “effect on PSCs (protoscolex viability)” value ([1]; after 7 days of incubation) was “slight effect”.

In the case of `O=C(C1CCCCC1)N1CC(=O)N2CCc3ccccc3C2C1` (stereo not drawn) [Praziquantel], the protoscolicidal activity [4] is given as “exhibit protoscolicidal activity”.

With `CCc1nc(N)nc(N)c1-c1ccc(Cl)cc1` [Pyrimethamine, pyrimethamine] the “percentage vitality of PSCs” value ([1]; 800 μM, after 7 days of incubation, control 82.65 ± 6.11%) was 20.67 ± 2.49% and the IC50 (rEg-DHFR [2]; [6]) was 860 ± 93.5 nM.

With `COc1cc(Cc2cnc(N)nc2N)cc(OC)c1OC` [Trimethoprim, trimethoprim] the viability at 3000 µM ([1]; Echinococcus granulosus, 168 h, read-out: PSCs remaining viable in culture) was 38.7 ± 6.18% and the IC50 (rEg-DHFR [2]; [6]) was 30800 ± 2090 nM.

B1: human DHFR (Homo sapiens) (protein)
chain: MVGSLNCIVAVSQNMGIGKNGDLPWPPLRNEFRYFQRMTTTSSVEGKQNLVIMGKKTWFSIPEKNRPLKGRINLVLSRELKEPPQGAHFLSRSLDDALKLTEQPELANKVDMVWIVGGSSVYKEAMNHPGHLKLFVTRIMQDFESDTFFPEIDLEKYKLLPEYPGVLSDVQEEKGIKYKFEVYEKND
For B1, the Km [5] was 14.61 ± 0.6590 µM and the Vmax [5] was 3.370 ± 0.02327 µmol/min/mg.

B2: rEg-DHFR (Echinococcus granulosus) (protein)
chain: T1 sequence (U6JJS2 1-191)
For B2, the Km [5] was 18.74 ± 0.5651 µM.

From paper PMC5428777, “Molecular Characteristics and Serodiagnostic Potential of Dihydrofolate Reductase from Echinococcus granulosus” (Scientific Reports, 2017)
